Numbers after ± are expanded uncertainties.
Assays:
[1] = DTA
[2] = Molar enthalpy of transition or fusion; conditions: DSC

CC1=C(CC(=O)O)c2cc(F)ccc2/C1=C\c1ccc([S+](C)[O-])cc1 (centres undefined)
Normal melting temperature ([1]; Crystal 1): 190.00 ± 2 °C
Normal melting temperature ([1]; Metastable crystal): 185.00 ± 2 °C
Molar enthalpy of transition or fusion ([2]; Crystal 1): 5.45 ± 0.17 kcal/mol
Molar enthalpy of transition or fusion ([2]; Metastable crystal): 7.24 ± 0.17 kcal/mol

— the NIST ThermoML archive (doi:10.1016/j.tca.2016.01.006)
